Where two headings read alike, the source gives them in different places.

In the experiment the target is T1, cloned human CCR8 receptor stably expressed in L1.2 cells (Homo sapiens, UniProt P51685).
T1 construct: expressed in transfected cells
The experiment in a line: whole cell binding screen: inhibition of biotinylated human I309 binding to CCR8 (FMAT 8100 HTS). Particulars: biotinylated human I-309, 10 point concentration response starting at 10 μM. Summed up:
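Ten-point dilutions, top 10 μM final, were tested for displacing biotin-I309 from hCCR8-transfected L1.2 cells in HEPES-buffered HBSS with BSA and sodium azide, mixing 0.5 h before FMAT 8100 detection. Signals converted to percent inhibition against untreated wells and a 100 nM excess unlabeled I309 control.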

Setting [1] is: L1.2/hCCR8 cells, read-out: Ki of compounds to inhibit I-309 binding to CCR8.
The mark [2] stands for this setting: Ki of compounds to inhibit I-309 binding to CCR8, L1.2/hCCR8 cells.

T1 sequence (P51685 whole entry): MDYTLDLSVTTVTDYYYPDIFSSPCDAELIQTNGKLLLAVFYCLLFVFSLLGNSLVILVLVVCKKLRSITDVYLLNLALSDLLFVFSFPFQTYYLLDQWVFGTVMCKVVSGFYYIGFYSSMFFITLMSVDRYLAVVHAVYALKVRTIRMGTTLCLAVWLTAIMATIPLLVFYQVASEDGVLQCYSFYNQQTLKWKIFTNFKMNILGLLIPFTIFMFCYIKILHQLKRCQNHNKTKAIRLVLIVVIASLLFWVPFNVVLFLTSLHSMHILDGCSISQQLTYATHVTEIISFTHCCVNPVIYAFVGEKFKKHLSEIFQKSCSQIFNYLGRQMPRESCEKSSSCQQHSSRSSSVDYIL

As a reminder, the Ki is the equilibrium dissociation constant of an inhibitor or competing ligand from its target. On to `CCOC(=O)N1CCC(NS(=O)(=O)c2ccc(NC(=O)c3ccccc3C)c3c2CCCC3)CC1` [Compound E-8, 4-[4-(2-Methyl-benzoylamino)-5,6,7,8-tetrahydro-naphthalene-1-sulfonylamino]-piperidine-1-carboxylic acid ethyl ester], for which, under setting [1], the Ki is less than 500 nM.
`CCCC(=O)N1CCC(NS(=O)(=O)c2ccc(NC(=O)C3CCCC3)c3ccccc23)CC1` [Compound D-18, Cyclopentanecarboxylic acid [4-(1-butyryl-piperidin-4-ylsulfamoyl)-naphthalen-1-yl]-amide] registered a Ki under setting [2] of less than 500 nM.
Consider `CCCC(=O)N1CC[C@H](NS(=O)(=O)c2ccc(N)c3ccccc23)[C@H](C)C1` (racemic) [Compound D-1, (±)-(cis)-4-amino-naphthalene-1-sulfonic acid (1-butyryl-3-methyl-piperidin-4-yl)-amide], for which the Ki under setting [1] was less than 30000 nM.
As to `Cc1ccccc1C(=O)Nc1cc(S(=O)(=O)NC2CCCCC2)cc2c1CCCC2` [Compound H-58, N-(3-Cyclohexylsulfamoyl-5,6,7,8-tetrahydro-naphthalen-1-yl)-2-methyl-benzamide], the Ki under setting [1] was less than 1000 nM.
For the molecule `Cc1ccccc1C(=O)Nc1ccc(S(=O)(=O)NCC2CCCCC2)c2c1CCCC2` [Compound E-27, N-[4-(Cyclohexylmethyl-sulfamoyl)-5,6,7,8-tetrahydro-naphthalen-1-yl]-2-methyl-benzamide], the Ki under setting [1] is less than 500 nM.
On the same count and under the same terms, the figure for `CCNC(=O)N1CCC(NS(=O)(=O)c2ccc(NC(=O)c3ccccc3C)c3ccccc23)C1` (racemic) [Compound C-52, (±)-3-[4-(2-Methyl-benzoylamino)-naphthalene-1-sulfonylamino]-pyrrolidine-1-carboxylic acid ethylamide] is less than 500 nM.
Regarding `CCOC(=O)N1CCC(NS(=O)(=O)c2ccc(NC(=O)c3ccccc3Cl)c3ccccc23)CC1` [Compound A-43, 4-[4-(2-Chloro-benzoylamino)-naphthalene-1-sulfonylamino]-piperidine-1-carboxylic acid ethyl ester], the Ki under setting [1] is less than 500 nM.
As for `CCOC(=O)[C@@H]1CNCC[C@@H]1NS(=O)(=O)c1ccc(NC(=O)c2ccccc2C)c2ccccc12` (racemic) [Compound C-77, (±)-(cis)-4-[4-(2-Methyl-benzoylamino)-naphthalene-1-sulfonylamino]-piperidine-3-carboxylic acid ethyl ester], under setting [1], the Ki is less than 30000 nM.
As for `C[C@@H]1CNCC[C@@H]1NS(=O)(=O)c1ccc(N2C(=O)c3ccccc3C2=O)c2ccccc12` (racemic) [Compound C-74, (±)-(cis)-4-(1,3-Dioxo-1,3-dihydro-isoindol-2-yl)-naphthalene-1-sulfonic acid (3-methyl-piperidin-4-yl)-amide], under setting [1], the Ki is less than 30000 nM.
For the molecule `CCOC(=O)N1CCC(NS(=O)(=O)c2ccc(NC(=O)c3ccccc3C)c3c2CCC3)CC1` [Compound H-64, 4-[7-(2-Methyl-benzoylamino)-indane-4-sulfonylamino]-piperidine-1-carboxylic acid ethyl ester], the Ki under setting [1] was less than 500 nM.
For `CC(C)(C)OC(=O)N1CCC(NS(=O)(=O)c2ccc(NC(=O)c3ccccc3)c3ccccc23)C1` (stereo not drawn) [Compound A-37, 3-(4-Benzoylamino-naphthalene-1-sulfonylamino)-pyrrolidine-1-carboxylic acid tert-butyl ester], the Ki under setting [1] was less than 500 nM.
With `COc1ccc(NS(=O)(=O)c2ccc(NC(=O)Nc3ccccc3)c3ccccc23)cc1` [Compound B-10, 4-(3-Phenyl-ureido)-naphthalene-1-sulfonic acid (4-methoxy-phenyl)-amide], the Ki under setting [1] was less than 30000 nM.
As to `CCOC(=O)N1CCC(NS(=O)(=O)c2ccc(CNC3CCCCC3)c3ccccc23)CC1` [Compound G-8, 4-(4-Cyclohexylainnomethyl-naphthalene-1-suffonylamino)-piperidine-1-carboxylic acid ethyl ester], the Ki under setting [1] was less than 500 nM.
Consider `CCOC(=O)N1CC[C@H](NS(=O)(=O)c2ccc(NC(=O)c3c(C)noc3C)c3ccccc23)[C@H](C)C1` (racemic) [Compound D-8, (±)-(cis)-4-{4-[(3,5-Dimethyl-isoxazole-4-carbonyl)-amino]-naphthalene-1-sulfonylamino}-3-methyl-piperidine-1-carboxylic acid ethyl ester], for which the Ki under setting [1] was less than 500 nM.
Take `O=C(Nc1ccc(S(=O)(=O)NC2CCNCC2)c2ccccc12)C1CCC1` [Compound D-13, Cyclobutanecarboxylic acid [4-(piperidin-4-ylsulfamoyl)-naphthalen-1-yl]-amide]: under setting [1], the Ki was less than 30000 nM.
On the same count and under the same terms, with `CCCC(=O)N1CCC(NS(=O)(=O)c2ccc(C(=O)Nc3cccc(C)c3)c3ccccc23)CC1` [Compound F-26, 4-(1-Butyryl-piperidin-4-ylsulfamoyl)-naphthalene-1-carboxylic acid m-tolylainde] the figure was less than 500 nM; with `CCOC(=O)N1CCC(NS(=O)(=O)c2ccc(NC(=O)c3cc(C)ccc3C)c3ccccc23)CC1` [Compound B-28, 4-[4-(2,5-Dimethyl-benzoylamino)-naphthalene-1-sulfonylamino]-piperidine-1-carboxylic acid ethyl ester], less than 500 nM; with `CC[C@@H]1CN(C(=O)[C@H](C)N)CC[C@H]1NS(=O)(=O)c1ccc(NC(=O)c2ccccc2C)c2ccccc12` [Compound J-32, (3R, 4R)-N-{4-[1-(2-(S)-Amino-propionyl)-3-ethyl-piperidin-4-ylsulfamoyl]-naphthalen-1-yl}-2-methyl-benzamide], less than 500 nM.
In the case of `Cc1cccc(NC(=O)c2ccc(S(=O)(=O)NC3CCN(C(=O)OC(C)(C)C)CC3)c3ccccc23)c1C` [Compound F-13, 4-[4-(2,3-Dimethyl-phenylcarbamoyl)-naphthalene-1-sulfonylamino]-piperidine-1-carboxylic acid tert-butyl ester], under setting [1], the Ki was less than 500 nM.
On to `CCOC(=O)N1CCC(NS(=O)(=O)c2ccc(NC(=O)N3CCCCC3)c3ccccc23)CC1` [Compound B-14, 4-{4-[(Piperidine-1-carbonyl)-amino]-naphthalene-1-sulfonylamino}-piperidine-1-carboxylic acid ethyl ester], for which the Ki under setting [2] was less than 500 nM.
As for `Cc1ccccc1C(=O)Nc1ccc(S(=O)(=O)N[C@@H]2CCN(C(=O)[C@H](C)N)C[C@@H]2C)c2ccccc12` [Compound J-4, (3S, 4R)-N-{4-[1-(2-(S)-Amino-propionyl)-3-methyl-piperidin-4-ylsulfamoyl]-naphthalen-1-yl}-2-methyl-benzamide], the Ki under setting [1] was less than 500 nM.
Regarding `CCOC(=O)N1CCC(NS(=O)(=O)c2ccc(NC(=O)c3ccccc3C)c3c2CCCC3=O)CC1` [Compound J-43, 4-[4-(2-Methyl-benzoylamino)-5-oxo-5,6,7,8-tetrahydro-naphthalene-1-sulfonylamino]-piperidine-1-carboxylic acid ethyl ester], under setting [1], the Ki was less than 1000 nM.
For `CCC(=O)N1CCC(NS(=O)(=O)c2ccc(NC(=O)c3ccccc3OC)c3ccccc23)CC1` [Compound C-102, 2-Methoxy-N-[4-(1-propionyl-piperidin-4-ylsulfamoyl)-naphthalen-1-yl]-benzamide], under setting [1], the Ki was less than 500 nM.
`CCOC(=O)N1CCC(NS(=O)(=O)c2cccc3c(NC(=O)C4CCCCC4)c(C)ccc23)CC1` [Compound H-22, 4-[5-(Cyclohexanecarbonyl-amino)-6-methyl-naphthalene-1-sulfonylamino]-piperidine-1-carboxylic acid ethyl ester]: the Ki under setting [1] was less than 1000 nM.
